{"source": "patent US20230312587A1", "about": "“PTERIDINONE COMPOUNDS AND USES THEREOF” (Vertex Pharmaceutical Incorporated, priority 2018, published 2023)"}
{"test_system": "β-catenin-TCF-mediated reporter transcription activity in Colo 205 cells", "test": "Colo 205 reporter assay (TCF/LEF luciferase)", "assay_type": "cell-based", "conditions": "Homo sapiens, COLO 205, 5 h, Colo 205 TCF/LEF luciferase reporter, five hours after addition of compound; read-out: TCF reporter Colo205 IC50", "in_short": "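Luciferase signal from a TCF/LEF-driven reporter, stably integrated in Colo 205 colon cancer cells, was measured 5 h after compound addition.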", "units": {"IC50": "nM"}}
{"compound": "C[C@H]1C(=O)Nc2cnc(NCc3cnn(Cc4ccc(C(F)(F)F)nc4)c3)nc2N1C", "note": "[Compound 195, (7S)-7,8-dimethyl-2-(((1-((6-(trifluoromethyl)pyridin-3-yl)methyl)-1H-pyrazol-4-yl)methyl)amino)-7,8-dihydropteridin-6(5H)-one]", "IC50": "300 to 1000"}
{"compound": "Cc1nc(NCc2cnn(Cc3ccc(N(C)C)nc3)c2)nc2c1NC(=O)[C@H](C)N2C", "note": "[Compound 196, (7S)-2-(((1-((6-(dimethylamino)pyridin-3-yl)methyl)-1H-pyrazol-4-yl)methyl)amino)-4,7,8-trimethyl-7,8-dihydropteridin-6(5H)-one]", "IC50": "300 to 1000"}
{"compound": "COc1ccc(Cn2cc(CNc3nc(C)c4c(n3)N(C)[C@@H](C)C(=O)N4)cn2)cn1", "note": "[Compound 197, (7S)-2-(((1-((6-methoxypyridin-3-yl)methyl)-1H-pyrazol-4-yl)methyl)amino)-4,7,8-trimethyl-7,8-dihydropteridin-6(5H)-one]", "IC50": "< 300"}
{"compound": "Cc1nc(NCc2cnn(Cc3cccnc3)c2)nc2c1NC(=O)[C@H](C)N2C", "note": "[Compound 198, (7S)-4,7,8-trimethyl-2-(((1-(pyridin-3-ylmethyl)-1H-pyrazol-4-yl)methyl)amino)-7,8-dihydropteridin-6(5H)-one]", "IC50": "1000 to 5000"}
{"compound": "Cc1cc(Cn2cc(CNc3nc(C)c4c(n3)N(C)[C@@H](C)C(=O)N4)cn2)cnc1C(F)(F)F", "note": "[Compound 199, (7S)-4,7,8-trimethyl-2-(((1-((5-methyl-6-(trifluoromethyl)pyridin-3-yl)methyl)-1H-pyrazol-4-yl)methyl)amino)-7,8-dihydropteridin-6(5H)-one]", "IC50": "< 300"}
{"compound": "Cc1nc(NCc2cnn(Cc3ccc(C(F)(F)F)cn3)c2)nc2c1NC(=O)[C@H](C)N2C", "note": "[Compound 200, (7S)-4,7,8-trimethyl-2-(((1-((5-(trifluoromethyl)pyridin-2-yl)methyl)-1H-pyrazol-4-yl)methyl)amino)-7,8-dihydropteridin-6(5H)-one]", "IC50": "300 to 1000"}
{"compound": "Cc1nc(NCc2cnn(Cc3cc(C(F)(F)F)ccn3)c2)nc2c1NC(=O)[C@H](C)N2C", "note": "[Compound 201, (7S)-4,7,8-trimethyl-2-(((1-((4-(trifluoromethyl)pyridin-2-yl)methyl)-1H-pyrazol-4-yl)methyl)amino)-7,8-dihydropteridin-6(5H)-one]", "IC50": "300 to 1000"}
{"compound": "Cc1nc(NCc2cnn(Cc3ccnc(O)c3)c2)nc2c1NC(=O)[C@H](C)N2C", "note": "[Compound 202, (7S)-2-(((1-((2-hydroxypyridin-4-yl)methyl)-1H-pyrazol-4-yl)methyl)amino)-4,7,8-trimethyl-7,8-dihydropteridin-6(5H)-one]", "IC50": "≥ 5000"}
{"compound": "COc1cc(Cn2cc(CNc3nc(C)c4c(n3)N(C)[C@@H](C)C(=O)N4)cn2)ccn1", "note": "[Compound 203, (7S)-2-(((1-((2-methoxypyridin-4-yl)methyl)-1H-pyrazol-4-yl)methyl)amino)-4,7,8-trimethyl-7,8-dihydropteridin-6(5H)-one]", "IC50": "< 300"}
{"compound": "Cc1nc(NCc2cnn(Cc3ccnc(C#N)c3)c2)nc2c1NC(=O)[C@H](C)N2C", "note": "[Compound 204, (7S)-4-((4-(((4,7,8-trimethyl-6-oxo-5,6,7,8-tetrahydropteridin-2-yl)amino)methyl)-1H-pyrazol-1-yl)methyl)picolinonitrile]", "IC50": "≥ 5000"}
{"compound": "Cc1cc(F)ncc1Cn1cc(CNc2nc(C)c3c(n2)N(C)[C@@H](C)C(=O)N3C)cn1", "note": "[Compound 205, (7S)-2-(((1-((6-fluoro-4-methylpyridin-3-yl)methyl)-1H-pyrazol-4-yl)methyl)amino)-4,5,7,8-tetramethyl-7,8-dihydropteridin-6(5H)-one]", "IC50": "300 to 1000"}
{"compound": "Cc1nc(NCc2cnn(Cc3cncc(C(F)(F)F)c3)c2)nc2c1NC(=O)[C@H](C)N2C", "note": "[Compound 206, (7S)-4,7,8-trimethyl-2-(((1-((5-(trifluoromethyl)pyridin-3-yl)methyl)-1H-pyrazol-4-yl)methyl)amino)-7,8-dihydropteridin-6(5H)-one]", "IC50": "< 300"}
{"compound": "Cc1nc(NCc2cnn(Cc3cncc(F)c3)c2)nc2c1NC(=O)[C@H](C)N2C", "note": "[Compound 208, (7S)-2-(((1-((5-fluoropyridin-3-yl)methyl)-1H-pyrazol-4-yl)methyl)amino)-4,7,8-trimethyl-7,8-dihydropteridin-6(5H)-one]", "IC50": "< 300"}
{"compound": "Cc1nc(NCc2cnn(Cc3cnc(C(F)(F)F)c(F)c3)c2)nc2c1NC(=O)[C@H](C)N2C", "note": "[Compound 209, (7S)-2-(((1-((5-fluoro-6-(trifluoromethyl)pyridin-3-yl)methyl)-1H-pyrazol-4-yl)methyl)amino)-4,7,8-trimethyl-7,8-dihydropteridin-6(5H)-one]", "IC50": "< 300"}
{"compound": "COc1cc(C(F)(F)F)ncc1Cn1cc(CNc2nc(C)c3c(n2)N(C)[C@@H](C)C(=O)N3)cn1", "note": "[Compound 210, (7S)-2-(((1-((4-methoxy-6-(trifluoromethyl)pyridin-3-yl)methyl)-1H-pyrazol-4-yl)methyl)amino)-4,7,8-trimethyl-7,8-dihydropteridin-6(5H)-one]", "IC50": "< 300"}
{"compound": "Cc1nc(NCc2cnn(Cc3ccc(C(C)(C)C)nc3)c2)nc2c1NC(=O)[C@H](C)N2C", "note": "[Compound 211, (7S)-2-(((1-((6-(tert-butyl)pyridin-3-yl)methyl)-1H-pyrazol-4-yl)methyl)amino)-4,7,8-trimethyl-7,8-dihydropteridin-6(5H)-one]", "IC50": "300 to 1000"}
{"compound": "Cc1nn(Cc2ccc(C(F)(F)F)nc2)c(C)c1CNc1nc(C)c2c(n1)N(C)[C@@H](C)C(=O)N2", "note": "[Compound 212, (7S)-2-(((3,5-Dimethyl-1-((6-(trifluoromethyl)pyridin-3-yl)methyl)-1H-pyrazol-4-yl)methyl)amino)-4,7,8-trimethyl-7,8-dihydropteridin-6(5H)-one]", "IC50": "≥ 5000"}
{"compound": "COc1cc(Cn2cc(CNc3nc(C)c4c(n3)N(C)[C@@H](C)C(=O)N4)cn2)cnc1C(F)(F)F", "note": "[Compound 213, (7S)-2-(((1-((5-methoxy-6-(trifluoromethyl)pyridin-3-yl)methyl)-1H-pyrazol-4-yl)methyl)amino)-4,7,8-trimethyl-7,8-dihydropteridin-6(5H)-one]", "IC50": "< 300"}
{"compound": "COc1ncc(Cn2cc(CNc3nc(C)c4c(n3)N(C)[C@@H](C)C(=O)N4)cn2)cc1C(F)(F)F", "note": "[Compound 215, (7S)-2-(((1-((6-methoxy-5-(trifluoromethyl)pyridin-3-yl)methyl)-1H-pyrazol-4-yl)methyl)amino)-4,7,8-trimethyl-7,8-dihydropteridin-6(5H)-one]", "IC50": "< 300"}
{"compound": "Cc1nc(N[C@H](C)c2cnn(Cc3ccc(C(F)(F)F)nc3)c2)nc2c1NC(=O)[C@H](C)N2C", "note": "[Compound 217, (7S)-4,7,8-Trimethyl-2-(((R)-1-(1-((6-(trifluoromethyl)pyridin-3-yl)methyl)-1H-pyrazol-4-yl)ethyl)amino)-7,8-dihydropteridin-6(5H)-one]", "IC50": "≥ 5000"}
{"compound": "COc1nc(C(F)(F)F)ccc1Cn1cc(CNc2nc(C)c3c(n2)N(C)[C@@H](C)C(=O)N3)cn1", "note": "[Compound 218, (7S)-2-(((1-((2-methoxy-6-(trifluoromethyl)pyridin-3-yl)methyl)-1H-pyrazol-4-yl)methyl)amino)-4,7,8-trimethyl-7,8-dihydropteridin-6(5H)-one]", "IC50": "< 300"}
{"compound": "Cc1nc(NCc2cnn(C[C@@H]3CCCN3c3cc(F)cc(F)c3)c2)nc2c1NC(=O)[C@H](C)N2C", "note": "[Compound 219, (7S)-2-(((1-(((S)-1-(3,5-difluorophenyl)pyrrolidin-2-yl)methyl)-1H-pyrazol-4-yl)methyl)amino)-4,7,8-trimethyl-7,8-dihydropteridin-6(5H)-one]", "IC50": "< 300"}
{"compound": "CCC[C@H]1C(=O)Nc2c(C)nc(NCc3cnn(Cc4ccc(C(F)(F)F)nc4)c3)nc2N1C", "note": "[Compound 220, (7S)-4,8-dimethyl-7-propyl-2-(((1-((6-(trifluoromethyl)pyridin-3-yl)methyl)-1H-pyrazol-4-yl)methyl)amino)-7,8-dihydropteridin-6(5H)-one]", "IC50": "< 300"}
{"compound": "CN1C(=O)C(C)(C)Nc2nc(NCc3cnn(Cc4ccc(F)cc4)c3)ncc21", "note": "[Compound 225, 2-(((1-(4-Fluorobenzyl)-1H-pyrazol-4-yl)methyl)amino)-5,7,7-trimethyl-7,8-dihydropteridin-6(5H)-one]", "IC50": "≥ 5000"}
{"compound": "CN1C(=O)C2(CC2)N(C)c2nc(NCc3cnn(Cc4ccc(F)cc4)c3)ncc21", "note": "[Compound 227, 2′-(((1-(4-fluorobenzyl)-1H-pyrazol-4-yl)methyl)amino)-5′,8′-dimethyl-5′,8′-dihydro-6′H-spiro[cyclopropane-1,7′-pteridin]-6′-one]", "IC50": "300 to 1000"}
{"compound": "CN1C(=O)C2(COC2)N(C)c2nc(NCc3cnn(Cc4ccc(F)cc4)c3)ncc21", "note": "[Compound 228, 2′-(((1-(4-fluorobenzyl)-1H-pyrazol-4-yl)methyl)amino)-5′,8′-dimethyl-5′,8′-dihydro-6′H-spiro[oxetane-3,7′-pteridin]-6′-one]", "IC50": "1000 to 5000"}
{"compound": "CCN1C(=O)C(C)(C)N(CC)c2nc(NCc3cnn(Cc4ccc(F)cc4)c3)ncc21", "note": "[Compound 230, 5,8-diethyl-2-(((1-(4-fluorobenzyl)-1H-pyrazol-4-yl)methyl)amino)-7,7-dimethyl-7,8-dihydropteridin-6(5H)-one]", "IC50": "300 to 1000"}
{"compound": "CCN1C(=O)C(C)(C)N(CC)c2nc(NCc3cnn(Cc4cc(F)c(F)c(F)c4)c3)ncc21", "note": "[Compound 231, 5,8-diethyl-7,7-dimethyl-2-(((1-(3,4,5-trifluorobenzyl)-1H-pyrazol-4-yl)methyl)amino)-7,8-dihydropteridin-6(5H)-one]", "IC50": "< 300"}
{"compound": "CCN1C(=O)C2(CC2)N(CC)c2nc(NCc3cnn(Cc4ccc(F)cc4)c3)ncc21", "note": "[Compound 232, 5′,8′-diethyl-2′-(((1-(4-fluorobenzyl)-1H-pyrazol-4-yl)methyl)amino)-5′,8′-dihydro-6′H-spiro[cyclopropane-1,7′-pteridin]-6′-one]", "IC50": "< 300"}
{"compound": "CCN1C(=O)C2(CC2)N(CC)c2nc(NCc3cnn(Cc4cc(F)c(F)c(F)c4)c3)ncc21", "note": "[Compound 233, 5′,8′-diethyl-2′-(((1-(3,4,5-trifluorobenzyl)-1H-pyrazol-4-yl)methyl)amino)-5′,8′-dihydro-6′H-spiro[cyclopropane-1,7′-pteridin]-6′-one]", "IC50": "< 300"}
